Data: ChEMBL document CHEMBL1149230, “Long chain amines and long chain ammonium salts as novel inhibitors of dynamin GTPase activity” (Bioorg Med Chem Lett, 2004)
The source made the active and inactive calls. The calls are words filed in the database; no cut-off is given here.

Key:
[1] = species: Ovis aries; experiment: Concentration required against Dynamin-1 GTPase activity of sheep brain at 3 uM; format: tissue-based
[2] = species: Ovis aries; experiment: Compound was tested for its ability to inhibit Dynamin-1 GTPase activity of sheep brain; Increased activity; format: tissue-based
[3] = species: Ovis aries; experiment: Compound was tested for its ability to inhibit Dynamin-1 GTPase activity of sheep brain at 30 uM; NE=No effect

CCCC/C=C\C/C=C\C/C=C\C/C=C\CCCC(=O)OCC(O)CO (stereo not drawn)
inhibition [1]: 70% | Concentration [2]: 300 µM | Activity [3]: inactive
